Source: US9067894B1, “Compound, composition, and method of activating GIRK potassium channel and use of same for treating conditions of interest” (Vanderbilt University, priority 2013, dated 2015)

How the values were obtained:
Nicotinic acetylcholine = experiment: Radioligand displacement (Ricerca), second nicotinic entry; format: binding, human; conditions: 10 μM; second Nicotinic acetylcholine line
Melatonin MT1 = target: T1, Melatonin MT1 (Homo sapiens, UniProt P48039); experiment: Radioligand displacement (Ricerca); format: binding
T1 construct: Ricerca (contract laboratory that ran the panel)
T1 sequence (P48039 whole entry): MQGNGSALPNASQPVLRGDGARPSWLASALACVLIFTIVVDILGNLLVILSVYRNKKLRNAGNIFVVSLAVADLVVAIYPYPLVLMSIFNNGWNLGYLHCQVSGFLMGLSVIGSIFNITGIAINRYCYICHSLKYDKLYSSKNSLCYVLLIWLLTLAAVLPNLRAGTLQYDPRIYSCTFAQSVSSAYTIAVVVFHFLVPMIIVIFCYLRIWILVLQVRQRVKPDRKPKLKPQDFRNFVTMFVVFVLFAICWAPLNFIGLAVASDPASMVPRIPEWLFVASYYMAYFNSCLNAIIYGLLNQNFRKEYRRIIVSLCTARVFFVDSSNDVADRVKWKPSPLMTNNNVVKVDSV

GIRK1/2 = target: T2, GIRK1/2 (Homo sapiens, UniProt P48051+P48549); experiment: Thallium flux, pertussis toxin-treated cells co-expressing mGlu8 and GIRK1/2; format: cell-based; design: host or cells: HEK-293; conditions: 600 ng/ml pertussis toxin; VU0456810 10 μM, glutamate 100 μM
T2 sequence (P48549 1-501): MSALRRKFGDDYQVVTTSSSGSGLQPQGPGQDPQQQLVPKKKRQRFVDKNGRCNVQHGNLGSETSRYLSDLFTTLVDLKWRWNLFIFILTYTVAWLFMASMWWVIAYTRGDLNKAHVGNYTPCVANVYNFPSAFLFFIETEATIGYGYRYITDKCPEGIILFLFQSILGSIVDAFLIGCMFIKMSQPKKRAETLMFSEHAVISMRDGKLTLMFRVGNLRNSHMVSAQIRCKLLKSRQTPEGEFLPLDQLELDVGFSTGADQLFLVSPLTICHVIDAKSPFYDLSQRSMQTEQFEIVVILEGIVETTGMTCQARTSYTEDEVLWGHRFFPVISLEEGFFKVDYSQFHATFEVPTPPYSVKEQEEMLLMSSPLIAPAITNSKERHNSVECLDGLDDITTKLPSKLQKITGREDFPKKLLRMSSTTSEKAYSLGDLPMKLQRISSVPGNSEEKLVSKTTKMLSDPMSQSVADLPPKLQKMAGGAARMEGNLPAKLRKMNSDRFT
T2 sequence (P48051 1-423): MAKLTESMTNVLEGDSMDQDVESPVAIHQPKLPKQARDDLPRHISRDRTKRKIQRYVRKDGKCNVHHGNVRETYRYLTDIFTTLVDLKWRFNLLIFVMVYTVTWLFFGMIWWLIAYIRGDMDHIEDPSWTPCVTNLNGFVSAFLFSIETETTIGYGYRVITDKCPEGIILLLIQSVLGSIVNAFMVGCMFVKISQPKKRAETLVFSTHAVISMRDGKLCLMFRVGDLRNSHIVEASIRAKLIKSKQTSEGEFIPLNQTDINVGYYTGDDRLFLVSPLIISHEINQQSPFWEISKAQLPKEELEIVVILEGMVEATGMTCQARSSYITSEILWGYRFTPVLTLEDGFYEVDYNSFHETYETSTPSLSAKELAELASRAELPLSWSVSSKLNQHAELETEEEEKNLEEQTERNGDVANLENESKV
Source text: Cell Line Construction and Cell Culture. HEK-293 cells co-expressing human GIRK1/2 and rat mGlu8 were generated as previously described (Niswender et al., 2008). A HEK-293 cell line (ATCC, Manassas, Va.) expressing human GIRK1 and human GIRK2 was constructed by transfecting HEK-293 cells with GIRK1 and GIRK2 (Origene, Rockville, Md.) cloned into the pBudCE4.1 vector (Life Technologies, Carlsbad, Calif.) using FuGene 6 (Promega, Madison, Wis.) transfection reagent. Unless otherwise noted, other ion channel-expressing cells were prepared by transfecting HEK-293 cells with individual or combinations of subunits: GIRK1, pCMV6-A-BSD; GIRK2, pCMV6-A-puro; GIRK3, pCMV6-A-hygro; GIRK4, pCMV6-A-AC; Kv7.4, pIRESneo3. The Kir2.1 and hERG-expressing cell lines were made by transfecting T-REx-293 cells (Life Technologies, Carlsbad, Calif.) with Kir2.1 and Kv11.1, respectively, cloned into pcDNA5TO. Monoclonal cell lines were produced by limiting-dilution cloning of antibiotic-resistant cells and functional selection using the thallium flux assay described below. Unless otherwise noted, cells were maintained in Minimal Essential Medium, Alpha Medium (Mediatech, Manassas, Va.) supplemented with 10% fetal bovine serum (Sigma-Aldrich, Saint Louis, Mo.) and GlutaGro (Mediatech, Manassas, Va.), referred to henceforth as cell culture medium. […]

[1] = Pentylenetetrazol (PTZ)-induced seizure model; format: in vivo, mouse; conditions: mice, i.p.; VU0456810 60 mg/kg, sodium valproate 150 mg/kg; PTZ 40 mg/kg; 20 minute timeframe
Protocol: After thirty minutes, PTZ was administered intraperitoneally (i.p., 40 mg/kg). Immediately following administration of PTZ, the amount of time elapsed before the first occurrence of tremors, tonic-clonic seizures, convulsion, and death was recorded. All mice were subject to a 20-minute post-[…] cutoff.
In all cases, experiments were conducted in a blind manner with respect to the experimenters. Data were evaluated in Excel using one-tailed, unpaired Student's t-test, assuming populations with unequal variance.

Cc1cc(NC(=O)Nc2ccc(F)c(F)c2)n(-c2ccccc2)n1 [VU0456810, 1-(3,4-difluorophenyl)-3-(3-methyl-1-phenyl-1H-pyrazol-5-yl)urea]
% Inhibition (Nicotinic acetylcholine): 7%
inhibition at 10 µM (Melatonin MT1): 11%
effect of pertussis toxin treatment on evoked thallium flux (GIRK1/2): unable to block
animals experiencing convulsions from PTZ treatment [1]: 5 out of 8 animals did not experience convulsions and significant decrease
animals surviving PTZ treatment [1]: 6 out of 8 animals survived and significant increase
